# Target: SIRT6 enzyme (Homo sapiens, UniProt Q8N6T7)
# Experiment: Measurement of deacetylation activity (SIRT6, AlphaLISA, H3K9(Ac) peptide)
# Format: biochemical
# Details: SIRT6 25 ng/mL, H3K9(Ac) biotin peptide 2 nM, NAD 10 μM, room temperature 30 minutes, duplicate
# Procedure, shortened: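 SIRT6 (25 ng/mL final) in Tris-HCl pH 8.0 buffer with compound (e.g. 0.046–100 μM final) reacted with biotin-H3K9(Ac) peptide (2 nM) and NAD+ (10 μM), 30 min, room temperature. Stopped with nicotinamide plus AlphaLISA anti-unmodified H3K9/K27 beads, 60 min; EC150 (150% relative activity) from sigmoidal fit.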
# SIRT6 enzyme, sequence (Q8N6T7 whole entry, species assumed): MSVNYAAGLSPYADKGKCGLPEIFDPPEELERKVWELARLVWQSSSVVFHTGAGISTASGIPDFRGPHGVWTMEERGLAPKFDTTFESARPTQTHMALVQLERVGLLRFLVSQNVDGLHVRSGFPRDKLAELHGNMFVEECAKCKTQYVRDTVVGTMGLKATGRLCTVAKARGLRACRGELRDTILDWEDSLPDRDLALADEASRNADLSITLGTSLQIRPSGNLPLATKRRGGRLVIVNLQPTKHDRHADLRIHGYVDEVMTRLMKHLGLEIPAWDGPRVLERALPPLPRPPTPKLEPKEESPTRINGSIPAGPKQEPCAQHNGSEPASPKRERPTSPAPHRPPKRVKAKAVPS
row,SMILES,EC150 (the concentration of the compound showing a relative enzyme activity of 150%) [μm]
1,"C[C@H](CO)NC(=O)Nc1nc2c(s1)[C@@H]1COC[C@H](C2)N1c1cc(-c2cccc(C(F)F)c2)on1 [Example 156, N-[(4S,8S)-10-{5-[3-(difluoromethyl)phenyl]-1,2-oxazol-3-yl}-4,7,8,9-tetrahydro-5H-4,8-epiminooxocino[5,4-d][1,3]thiazol-2-yl]-N′-[(2R)-1-hydroxypropan-2-yl]urea]",1
2,"O=C(Nc1nc2c(s1)[C@@H]1COC[C@H](C2)N1c1ncc(-c2cccc(OC(F)F)n2)o1)NC1(CO)CC1 [Example 181, N-[(4S,8S)-10-{5-[6-(difluoromethoxy)pyridin-2-yl]-1,3-oxazol-2-yl}-4,7,8,9-tetrahydro-5H-4,8-epiminooxocino[5,4-d][1,3]thiazol-2-yl]-N′-[1-(hydroxymethyl)cyclopropyl]urea]",0.53
3,"COc1cccc(-c2cc(N3[C@@H]4COC[C@H]3c3sc(NC(=O)N[C@@H]5CCOC5)nc3C4)no2)n1 [Example 163, N-{(4S,8S)-10-[5-(6-methoxypyridin-2-yl)-1,2-oxazol-3-yl]-4,7,8,9-tetrahydro-5H-4,8-epiminooxocino[5,4-d][1,3]thiazol-2-yl}-N′-[(3R)-oxolan-3-yl]urea]",1.6
4,"CNC(=O)Nc1nc2c(s1)C1COCC(C2)N1c1cc(-c2ccc(F)cc2)on1 (centres unmarked) [Example 16, N-{10-[5-(4-fluorophenyl)-1,2-oxazol-3-yl]-4,7,8,9-tetrahydro-5H-4,8-epiminooxocino[5,4-d][1,3]thiazol-2-yl}-N′-methylurea]",4.2
5,"COc1cc2nc(N3[C@@H]4COC[C@H]3c3sc(NC(=O)N[C@@H]5CCOC5)nc3C4)oc2cc1C [Example 45, N-[(4S,8S)-10-(5-methoxy-6-methyl-1,3-benzoxazol-2-yl)-4,7,8,9-tetrahydro-5H-4,8-epiminooxocino[5,4-d][1,3]thiazol-2-yl]-N′-[(3R)-oxolan-3-yl]urea]",0.79
6,"C[C@H](CO)NC(=O)Nc1nc2c(s1)[C@@H]1COC[C@H](C2)N1c1ncc(-c2cccc(OC(F)F)c2)o1 [Example 70, N-[(4S,8S)-10-{5-[3-(difluoromethoxy)phenyl]-1,3-oxazol-2-yl}-4,7,8,9-tetrahydro-5H-4,8-epiminooxocino[5,4-d][1,3]thiazol-2-yl]-N′-[(2R)-1-hydroxypropan-2-yl]urea]",0.45
7,"O=C(Nc1nc2c(s1)CN(c1nc(C3(C(F)(F)F)CC3)no1)CC2)N[C@H]1C[C@H](O)C1 [Example 97, N-[(1r,3r)-3-hydroxycyclobutyl]-N′-(5-{3-[1-(trifluoromethyl)cyclopropyl]-1,2,4-oxadiazol-5-yl}-4,5,6,7-tetrahydro[1,3]thiazolo[5,4-c]pyridin-2-yl)urea]",1.3
8,"COc1cc2nc(N3[C@@H]4COC[C@H]3c3sc(NC(=O)NCC(C)(C)O)nc3C4)oc2cc1C [Example 44, N-(2-hydroxy-2-methylpropyl)-N′-[(4S,8S)-10-(5-methoxy-6-methyl-1,3-benzoxazol-2-yl)-4,7,8,9-tetrahydro-5H-4,8-epiminooxocino[5,4-d][1,3]thiazol-2-yl]urea]",2.3
9,"COc1cccc(-c2cnc(N3[C@@H]4COC[C@H]3c3sc(NC(=O)NCC(C)(C)O)nc3C4)o2)n1 [Example 184, N-(2-hydroxy-2-methylpropyl)-N′-{(4S,8S)-10-[5-(6-methoxypyridin-2-yl)-1,3-oxazol-2-yl]-4,7,8,9-tetrahydro-5H-4,8-epiminooxocino[5,4-d][1,3]thiazol-2-yl}urea]",0.91
10,"O=C(Nc1nc2c(s1)[C@@H]1COC[C@H](C2)N1c1ncc(-c2cccc(C(F)F)c2)o1)N[C@H]1C[C@H](O)C1 [Example 166, N-(10-{5-[3-(difluoromethyl)phenyl]-1,3-oxazol-2-yl}-4,7,8,9-tetrahydro-5H-4,8-epiminooxocino[5,4-d][1,3]thiazol-2-yl)-N′-[(1r,3r)-3-hydroxycyclobutyl]urea]",0.21
11,"C[C@H](CO)NC(=O)Nc1nc2c(s1)[C@@H]1COC[C@H](C2)N1c1cc(-c2ccc(F)cc2)on1 [Example 154, N-{(4S,8S)-10-[5-(4-fluorophenyl)-1,2-oxazol-3-yl]-4,7,8,9-tetrahydro-5H-4,8-epiminooxocino[5,4-d][1,3]thiazol-2-yl}-N′-[(2R)-1-hydroxypropan-2-yl]urea]",0.82
12,"CC(C)CNC(=O)Nc1nc2c(s1)[C@@H]1COC[C@H](C2)N1c1nc2cc(S(C)(=O)=O)ccc2o1 [Example 43, N-{(4S,8S)-10-[5-(methanesulfonyl)-1,3-benzoxazol-2-yl]-4,7,8,9-tetrahydro-5H-4,8-epiminooxocino[5,4-d][1,3]thiazol-2-yl}-N′-(2-methylpropyl)urea]",1.5
13,"O=C(NCc1cc[nH]c(=O)c1)Nc1nc2c(s1)CN(c1nc(C3CCC(F)(F)CC3)no1)CC2 [Example 101, N-{5-[3-(4,4-difluorocyclohexyl)-1,2,4-oxadiazol-5-yl]-4,5,6,7-tetrahydro[1,3]thiazolo[5,4-c]pyridin-2-yl}-N′-[(2-oxo-1,2-dihydropyridin-4-yl)methyl]urea]",1.1
14,"COc1cccc(-c2cnc(N3[C@@H]4COC[C@H]3c3sc(NC(=O)N[C@H]5CC[C@@H](O)CC5)nc3C4)o2)n1 [Example 187, N-[(1s,4s)-4-hydroxycyclohexyl]-N′-{(4S,8S)-10-[5-(6-methoxypyridin-2-yl)-1,3-oxazol-2-yl]-4,7,8,9-tetrahydro-5H-4,8-epiminooxocino[5,4-d][1,3]thiazol-2-yl}urea]",0.64
15,"CNC(=O)Nc1nc2c(s1)C1CN(S(C)(=O)=O)CC(C2)N1c1nc(-c2ccc(F)cc2)no1 (centres unmarked) [Example 31, N-{10-[3-(4-fluorophenyl)-1,2,4-oxadiazol-5-yl]-6-(methanesulfonyl)-4,5,6,7,8,9-hexahydro-4,8-epimino[1,3]thiazolo[5,4-d]azocin-2-yl}-N′-methylurea]",2.5
16,"CNC(=O)Nc1nc2c(s1)[C@@H]1COC[C@H](C2)N1c1nc(C2CCC(F)(F)CC2)no1 [Example 7, N-{(4S,8S)-10-[3-(4,4-difluorocyclohexyl)-1,2,4-oxadiazol-5-yl]-4,7,8,9-tetrahydro-5H-4,8-epiminooxocino[5,4-d][1,3]thiazol-2-yl}-N′-methylurea]",5.7
17,"CNC(=O)Nc1nc2c(s1)C1CN(C(C)=O)CC(C2)N1c1ncc(-c2cccc(OC(F)F)n2)o1 (centres unmarked) [Example 128, N-(6-acetyl-10-{5-[6-(difluoromethoxy)pyridin-2-yl]-1,3-oxazol-2-yl}-4,5,6,7,8,9-hexahydro-4,8-epimino[1,3]thiazolo[5,4-d]azocin-2-yl)-N′-methylurea]",0.43
18,"COc1cccc(-c2cnc(N3[C@@H]4COC[C@H]3c3sc(NC(=O)N[C@H]5C[C@H](O)C5)nc3C4)o2)n1 [Example 78, N-[(1r,3S)-3-hydroxycyclobutyl]-N′-{(4S,8S)-10-[5-(6-methoxypyridin-2-yl)-1,3-oxazol-2-yl]-4,7,8,9-tetrahydro-5H-4,8-epiminooxocino[5,4-d][1,3]thiazol-2-yl}urea]",0.41
19,"COc1ccc2oc(N3CCc4nc(NC(=O)N[C@H](C)CO)sc4C3)nc2c1 [Example 189, N-[(2R)-1-hydroxypropan-2-yl]-N′-[5-(5-methoxy-1,3-benzoxazol-2-yl)-4,5,6,7-tetrahydro[1,3]thiazolo[5,4-c]pyridin-2-yl]urea]",0.38
20,"CC(C)OC(=O)N1CC2Cc3nc(NC(=O)NC4CCOCC4)sc3C(C1)N2c1nc(-c2ccc(F)cc2)no1 (centres unmarked) [Example 143, Propan-2-yl-10-[3-(4-fluorophenyl)-1,2,4-oxadiazol-5-yl]-2-{[(oxan-4-yl)carbamoyl]amino}-4,7,8,9-tetrahydro-4,8-epimino[1,3]thiazolo[5,4-d]azocine-6(5H)-carboxylate]",0.62
21,"CNC(=O)Nc1nc2c(s1)C1COCC(C2)N1c1nc([C@H]2CC[C@@H](C(F)(F)F)CC2)no1 (some centres unmarked) [Example 6, N-methyl-N′-(10-{3-[(1s,4s)-4-(trifluoromethyl)cyclohexyl]-1,2,4-oxadiazol-5-yl}-4,7,8,9-tetrahydro-5H-4,8-epiminooxocino[5,4-d][1,3]thiazol-2-yl)urea]",4.5
22,"CC(C)(O)CNC(=O)Nc1nc2c(s1)CN(c1nc(C34CC(C(F)F)(C3)C4)no1)CC2 [Example 96, N-(5-{3-[3-(difluoromethyl)bicyclo[1.1.1]pentan-1-yl]-1,2,4-oxadiazol-5-yl}-4,5,6,7-tetrahydro[1,3]thiazolo[5,4-c]pyridin-2-yl)-N′-(2-hydroxy-2-methylpropyl)urea]",1.6
23,"CNC(=O)Nc1nc2c(s1)C1CN(C(=O)OC)CC(C2)N1c1nc(-c2ccc(F)cn2)no1 (centres unmarked) [Example 142, Methyl 10-[3-(5-fluoropyridin-2-yl)-1,2,4-oxadiazol-5-yl]-2-[(methylcarbamoyl)amino]-4,7,8,9-tetrahydro-4,8-epimino[1,3]thiazolo[5,4-d]azocine-6(5H)-carboxylate]",3.3

# From patent US11981686B2, “Urea compound having substituent” (DAIICHI SANKYO COMPANY, LIMITED, priority 2019, dated 2024)
